The assay relates to Beet Armyworm (Spodoptera exigua). Briefly: Bioassays on BAW, 128-well diet tray assay. The conditions noted are these: percent mortality, second instar larvae, 50 μg/cm^2 on artificial diet, five to seven days, 25° C.; Table 3. In kind it is in vivo. The method, then: Certain molecules disclosed in this document were tested against BAW and CEW and CL using procedures described in the following examples. In the reporting of the results, the “BAW & CEW & CL Rating Table” was used (See Table Section).
Bioassays on BAW (Spodoptera exigua)
Bioassays on BAW were conducted using a 128-well diet tray assay. one to five second instar BAW larvae were placed in each well (3 mL) of the diet tray that had been previously filled with 1 mL of artificial diet to which 50 μg/cm^2 of the test compound (dissolved in 50 μL of 90:10 acetone-water mixture) had been applied (to each of eight wells) and then allowed to dry. Trays were covered with a clear self-adhesive cover, and held at 25° C., 14:10 light-dark for five to seven days. Percent mortality was recorded for the larvae in each well; activity in the eight wells was then averaged. The results are indicated in the table entitled “Table 3: Assay Results” (See Table Section).

With `O=C(NC1CS(=O)(=O)C1)c1ccc(/C=C/C(c2cc(Cl)cc(Cl)c2)C(F)(F)F)cc1F` (stereo not drawn) [AC83, (E)-4-(3-(3,5-Dichlorophenyl)-4,4,4-trifluorobut-1-en-1-yl)-N-(1,1-dioxidothietan-3-yl)-2-fluorobenzamide], the “BAW Rating” value is reported as “A (50-100)”. The entry for `O=C(NC1CS(=O)(=O)C1)c1ccc(/C=C/C(c2cc(Cl)c(F)c(Cl)c2)C(F)(F)F)cc1F` (stereo not drawn) [AC84] is “A (50-100)”; for `COc1cc(/C=C/C(c2cc(Cl)c(F)c(Cl)c2)C(F)(F)F)ccc1C(=O)NC1CS(=O)(=O)C1` (stereo not drawn) [AC85] it is “A (50-100)”.

On to `CCc1cc(/C=C/C(c2cc(Cl)c(F)c(Cl)c2)C(F)(F)F)ccc1C(=O)NC1CS(=O)(=O)C1` (stereo not drawn) [AC86], for which the “BAW Rating” value was “A (50-100)”. The entry for `O=C(NC1C[S+]([O-])C1)c1ccc(/C=C/C(c2cc(Cl)c(F)c(Cl)c2)C(F)(F)F)cc1F` (stereo not drawn) [AC87] is “A (50-100)”; for `Cc1cc(/C=C/C(c2cc(Cl)cc(Cl)c2)C(F)(F)F)ccc1C(=O)NCc1nnc(C2CC2)o1` (stereo not drawn) [AC89, (E)-N-((5-Cyclopropyl-1,3,4-oxadiazol-2-yl)methyl)-4-(3-(3,5-dichlorophenyl)-4,4,4-trifluorobut-1-en-1-yl)-2-methylbenzamide] it is “A (50-100)”; for `FC(F)(F)CNC(=S)CNC(=S)c1ccc(/C=C/C(c2cc(Cl)c(Cl)c(Cl)c2)C(F)(F)F)cc1Br` (stereo not drawn) [AC90, (E)-2-Bromo-N-(2-thioxo-2-((2,2,2-trifluoroethyl)amino)ethyl)-4-(4,4,4-trifluoro-3-(3,4,5-trichlorophenyl)but-1-en-1-yl)benzothioamide] it is “A (50-100)”.

Turning to `O=C(CNC(=S)c1ccc(/C=C/C(c2cc(Cl)c(Cl)c(Cl)c2)C(F)(F)F)cc1Br)NCC(F)(F)F` (stereo not drawn) [AC91, (E)-2-(2-Bromo-4-(4,4,4-trifluoro-3-(3,4,5-trichlorophenyl)but-1-en-1-yl)phenylthioamido)-N-(2,2,2-trifluoroethyl)acetamide], the “BAW Rating” value was “A (50-100)”.

For the compound `O=C(NCC(=S)NCC(F)(F)F)c1ccc(/C=C/C(c2cc(Cl)c(Cl)c(Cl)c2)C(F)(F)F)cc1Br` (stereo not drawn) [AC92, (E)-2-Bromo-N-(2-thioxo-2-((2,2,2-trifluoroethyl)amino)ethyl)-4-(4,4,4-trifluoro-3-(3,4,5-trichlorophenyl)but-1-en-1-yl)benzamide], the “BAW Rating” value is on record as “A (50-100)”. For the compound `Cc1cc(/C=C\C(c2cc(Cl)cc(Cl)c2)C(F)(F)F)ccc1C(=O)NCC(=O)NC1CC1` (stereo not drawn) [AC93], the “BAW Rating” value was “A (50-100)”. The entry for `O=C(CNC(=O)c1ccc(/C=C\C(c2cc(Cl)c(Cl)c(Cl)c2)C(F)(F)F)cc1Br)NCC(F)(F)F` (stereo not drawn) [AC95, (Z)-2-Bromo-N-(2-oxo-2-((2,2,2-trifluoroethyl)amino)ethyl)-4-(4,4,4-trifluoro-3-(3,4,5-trichlorophenyl)but-1-en-1-yl)benzamide] is “A (50-100)”. The entry for `O=C(CNC(=O)c1ccc(/C=C/C(c2cc(Cl)c(F)c(Cl)c2)C(F)(F)F)cc1[N+](=O)[O-])NCC(F)(F)F` (stereo not drawn) [AC98] is “A (50-100)”; for `O=C(CNC(=O)c1ccc(/C=C/C(c2ccc(F)c(Cl)c2)C(F)(F)F)cc1Br)NCC(F)(F)F` (stereo not drawn) [AC99] it is “A (50-100)”; for `CC(=O)N1CCC(NC(=O)c2ccc(/C=C/C(c3cc(Cl)c(Cl)c(Cl)c3)C(F)(F)F)cc2Br)CC1` (stereo not drawn) [AC103, (E)-N-(1-Acetylpiperidin-4-yl)-2-bromo-4-(4,4,4-trifluoro-3-(3,4,5-trichlorophenyl)but-1-en-1-yl)benzamide] it is “A (50-100)”.

Regarding `O=C(NC1CCN(C(=O)CC(F)(F)F)CC1)c1ccc(/C=C/C(c2cc(Cl)c(Cl)c(Cl)c2)C(F)(F)F)cc1Br` (stereo not drawn) [AC104, (E)-2-Bromo-4-(4,4,4-trifluoro-3-(3,4,5-trichlorophenyl)but-1-en-1-yl)-N-(1-(3,3,3-trifluoropropanoyl)piperidin-4-yl)benzamide], the “BAW Rating” value is “A (50-100)”.
